How the values were obtained:
[1] = species on record: Mus musculus; test: Anticonvulsant activity in mouse assessed as inhibition of maximal electroshock-induced seizures; format: functional
[2] = Toxicity in mouse; format: organism-based; details: in vivo
[3] = species on record: Mus musculus; test: Protective index, ratio of TD50 for mouse to ED50 for maximal electroshock-induced mouse seizure model; format: functional
[4] = species on record: Mus musculus; test: Anticonvulsant activity against maximal electroshock-induced seizures in mouse assessed as time to peak effect; format: functional
[5] = species on record: Rattus norvegicus; test: Anticonvulsant activity in rat assessed as inhibition of maximal electroshock-induced seizures; format: functional
[6] = Toxicity in rat; format: organism-based; details: in vivo
[7] = species on record: Rattus norvegicus; test: Protective index, ratio of TD50 for rat to ED50 for maximal electroshock-induced rat seizure model; format: functional
[8] = species on record: Rattus norvegicus; test: Anticonvulsant activity against maximal electroshock-induced seizures in rat assessed as time to peak effect; format: functional

CC1CC(=O)C=C(Nc2ccc(Cl)cc2)C1 (stereo unspecified)
ED50 [1]: 16.7 mg/kg | TD50 [2]: 111 mg/kg | PI [3]: 6.6 | Time [4]: 0.25 h | ED50 [5]: 14.7 mg/kg | TD50 [6]: > 186 mg/kg | PI [7]: >83.3 | Time [8]: 1 h

CC1CC(=O)C=C(Nc2ccc(OC(F)(F)F)cc2)C1 (stereo unspecified)
ED50 [5]: 6.5 mg/kg | TD50 [6]: > 400 mg/kg | PI [7]: >62 | Time [8]: 0.5 h

CC1CC(=O)C=C(Nc2ccc(C(F)(F)F)cc2)C1 (stereo unspecified)
ED50 [5]: 10.3 mg/kg | TD50 [6]: > 500 mg/kg | PI [7]: >48.4 | Time [8]: 1 h

CC1CC(=O)C=C(Nc2ccc(Br)cc2)C1 (stereo unspecified)
ED50 [5]: 7.6 mg/kg | TD50 [6]: > 500 mg/kg | PI [7]: >65.8 | Time [8]: 0.5 h

CC1CC(=O)C=C(Nc2ccc(I)cc2)C1 (stereo unspecified)
ED50 [1]: 77 mg/kg | TD50 [2]: 344 mg/kg | PI [3]: 4.5 | Time [4]: 0.25 h | ED50 [5]: 17.6 mg/kg | TD50 [6]: > 500 mg/kg | PI [7]: >28.3 | Time [8]: 2 h

COc1cccc(NC2=CC(=O)CC(C)C2)c1 (stereo unspecified)
ED50 [5]: 39.4 mg/kg | TD50 [6]: > 500 mg/kg | PI [7]: >12.7 | Time [8]: 0.5 h

CC1CC(=O)C=C(Nc2ccc([N+](=O)[O-])cc2)C1 (stereo unspecified)
ED50 [5]: 18.4 mg/kg | TD50 [6]: > 500 mg/kg | PI [7]: >27.4 | Time [8]: 4 h
